How the values were obtained:
[1] = molecular target: T1, MEK1 (Homo sapiens, UniProt Q02750); test: Protein kinase profiling (Kinase HotSpot); type: biochemical; conditions: single dose 1 μM
T1 construct: purchased Reaction Biology Corp. (Kinase HotSpot service)
Description: (§1) The analysis protocol was as follows: In a final reaction volume of 25 μL, a peptide substrate, [[sequence]], 5 μM, ATP 10 μM, and FLT3(h) (5 to 10 mU) were incubated with 25 mM Tris pH 7.5, 0.02 mM EGTA, 0.66 mg/mL myelin basic protein, 10 mM Mg acetate and [γ-33P-ATP] (a concentration of approximately 500 cpm/pmol was required for specific activity). The reaction was initiated by adding the Mg-ATP mixture. After incubation at room temperature for 40 minutes, the reaction was stopped by adding 5 μL of a 3% phosphoric acid solution. Thereafter, 10 μL of the reactant was spotted on a P30 filter mat and washed three times for 5 minutes in 75 mM phosphoric acid and once in methanol before drying and scintillation counting.

[2] = molecular target: T2, ALK (Homo sapiens, UniProt Q9UM73); test: Protein kinase profiling (Kinase HotSpot); type: biochemical; conditions: single dose 1 μM
T2 construct: purchased Reaction Biology Corp. (Kinase HotSpot service)
Description: (§2) Reaction Biology Corp. Kinase HotSpot SM service (www.reactionbiology.com) was used to determine IC50 values for all compounds and kinase profiles. The analysis protocol was as follows: In a final reaction volume of 25 μL, a peptide substrate, [[sequence]], 5 μM, ATP 10 μM, and FLT3(h) (5 to 10 mU) were incubated with 25 mM Tris pH 7.5, 0.02 mM EGTA, 0.66 mg/mL myelin basic protein, 10 mM Mg acetate and [γ-33P-ATP] (a concentration of approximately 500 cpm/pmol was required for specific activity). The reaction was initiated by adding the Mg-ATP mixture. After incubation at room temperature for 40 minutes, the reaction was stopped by adding 5 μL of a 3% phosphoric acid solution. Thereafter, 10 μL of the reactant was spotted on a P30 filter mat and washed three times for 5 minutes in 75 mM phosphoric acid and once in methanol before drying and scintillation counting.

[3] = molecular target: FLT3 (ITD)-NPOS (Homo sapiens, UniProt P36888); test: Kinase HotSpot radiometric kinase assay (Reaction Biology); type: biochemical; conditions: single dose 1 μM
Description: Reaction Biology Corp. Kinase HotSpot SM service (www.reactionbiology.com) was used to determine IC50 values for all compounds and kinase profiles. […] The reaction was initiated by adding the Mg-ATP mixture. After incubation at room temperature for 40 minutes, the reaction was stopped by adding 5 μL of a 3% phosphoric acid solution. Thereafter, 10 μL of the reactant was spotted on a P30 filter mat and washed three times for 5 minutes in 75 mM phosphoric acid and once in methanol before drying and scintillation counting.

[4] = molecular target: T3, TYRO3/SKY (Homo sapiens, UniProt Q06418); test: Protein kinase profiling (Kinase HotSpot); type: biochemical; conditions: single dose 1 μM
T3 construct: purchased Reaction Biology Corp. (Kinase HotSpot service)

[5] = molecular target: T4, AKT1 (Homo sapiens, UniProt P31749); test: Protein kinase profiling (Kinase HotSpot); type: biochemical; conditions: single dose 1 μM
T4 construct: purchased Reaction Biology Corp. (Kinase HotSpot service)
Description: as §2

[6] = molecular target: T5, BRAF (V599E) (Homo sapiens, UniProt P15056, V600E); test: Protein kinase profiling (Kinase HotSpot); type: biochemical
T5 construct: purchased Reaction Biology Corp. (Kinase HotSpot service)
Description: as §2

[7] = molecular target: T6, c-MER (Homo sapiens, UniProt Q12866); test: Protein kinase profiling (Kinase HotSpot); type: biochemical; conditions: single dose 1 μM
T6 construct: purchased Reaction Biology Corp. (Kinase HotSpot service)
Description: as §1

[8] = molecular target: T7, EGFR (Homo sapiens, UniProt P00533); test: Protein kinase profiling (Kinase HotSpot); type: biochemical; conditions: single dose 1 μM
T7 construct: purchased Reaction Biology Corp. (Kinase HotSpot service)
Description: as §1

[9] = molecular target: T8, AXL (R499C) (Homo sapiens, UniProt P30530, R499C); test: Protein kinase profiling (Kinase HotSpot); type: biochemical; conditions: single dose 1 μM
T8 construct: purchased Reaction Biology Corp. (Kinase HotSpot service)
Description: as §2

[10] = molecular target: T9, CAMKK1 (Homo sapiens, UniProt Q8N5S9); test: Protein kinase profiling (Kinase HotSpot); type: biochemical
T9 construct: purchased Reaction Biology Corp. (Kinase HotSpot service)
T9 sequence (Q8N5S9 whole entry): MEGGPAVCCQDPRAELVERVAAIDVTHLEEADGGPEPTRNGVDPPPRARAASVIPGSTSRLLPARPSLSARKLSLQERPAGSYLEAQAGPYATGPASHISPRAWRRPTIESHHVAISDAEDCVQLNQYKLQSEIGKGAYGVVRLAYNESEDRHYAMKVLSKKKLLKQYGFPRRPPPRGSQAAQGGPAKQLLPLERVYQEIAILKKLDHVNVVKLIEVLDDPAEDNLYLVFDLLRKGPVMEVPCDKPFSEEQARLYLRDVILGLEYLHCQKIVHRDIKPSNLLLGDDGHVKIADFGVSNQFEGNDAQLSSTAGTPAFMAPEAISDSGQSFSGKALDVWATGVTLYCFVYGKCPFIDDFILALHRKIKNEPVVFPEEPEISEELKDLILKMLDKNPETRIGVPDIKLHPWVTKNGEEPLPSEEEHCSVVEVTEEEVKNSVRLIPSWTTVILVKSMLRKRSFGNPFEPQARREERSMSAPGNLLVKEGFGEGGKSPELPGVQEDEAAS
Description: as §2

[11] = molecular target: T10, c-Src (Homo sapiens, UniProt P12931); test: Protein kinase profiling (Kinase HotSpot); type: biochemical; conditions: single dose 1 μM
T10 construct: purchased Reaction Biology Corp. (Kinase HotSpot service)
Description: as §1

[12] = molecular target: FGFR3 (Homo sapiens, UniProt P22607); test: Protein kinase profiling (Kinase HotSpot)
Sequence of FGFR3 (P22607 23-806): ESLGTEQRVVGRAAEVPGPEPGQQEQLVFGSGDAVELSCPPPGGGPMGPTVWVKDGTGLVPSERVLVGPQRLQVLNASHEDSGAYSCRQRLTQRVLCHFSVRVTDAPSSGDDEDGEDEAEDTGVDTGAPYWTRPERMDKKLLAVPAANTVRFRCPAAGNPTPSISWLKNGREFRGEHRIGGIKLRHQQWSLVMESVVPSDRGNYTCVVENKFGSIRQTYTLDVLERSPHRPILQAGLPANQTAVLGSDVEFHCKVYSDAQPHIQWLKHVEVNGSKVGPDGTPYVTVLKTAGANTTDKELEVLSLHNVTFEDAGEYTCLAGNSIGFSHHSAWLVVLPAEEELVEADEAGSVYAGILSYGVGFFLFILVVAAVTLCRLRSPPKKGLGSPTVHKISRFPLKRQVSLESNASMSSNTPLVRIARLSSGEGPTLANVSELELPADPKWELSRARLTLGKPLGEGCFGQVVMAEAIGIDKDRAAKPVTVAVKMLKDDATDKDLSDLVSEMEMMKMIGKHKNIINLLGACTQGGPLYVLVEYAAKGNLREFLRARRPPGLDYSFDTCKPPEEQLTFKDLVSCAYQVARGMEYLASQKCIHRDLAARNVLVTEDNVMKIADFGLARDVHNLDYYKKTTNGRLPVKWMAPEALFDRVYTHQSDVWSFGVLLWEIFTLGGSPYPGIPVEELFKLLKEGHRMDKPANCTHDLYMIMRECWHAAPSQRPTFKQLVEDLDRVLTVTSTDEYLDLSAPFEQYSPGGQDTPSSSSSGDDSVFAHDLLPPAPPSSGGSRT
Description: as §2

[13] = molecular target: T11, PLK1 (Homo sapiens, UniProt P53350); test: Protein kinase profiling (Kinase HotSpot); type: biochemical; conditions: single dose 1 μM
T11 construct: purchased Reaction Biology Corp. (Kinase HotSpot service)
Description: as §1

[14] = molecular target: T12, FLT3 (Y591_V592 ins VDFREYEYD) (Homo sapiens, UniProt P36888, INS591VDFREYEYD); test: Kinase HotSpot radiometric kinase assay (Reaction Biology); type: biochemical
T12 construct: purchased Reaction Biology Corp. (Kinase HotSpot service)
T12 sequence (P36888 with tags, fused parts or gaps with the stated changes limits assumed): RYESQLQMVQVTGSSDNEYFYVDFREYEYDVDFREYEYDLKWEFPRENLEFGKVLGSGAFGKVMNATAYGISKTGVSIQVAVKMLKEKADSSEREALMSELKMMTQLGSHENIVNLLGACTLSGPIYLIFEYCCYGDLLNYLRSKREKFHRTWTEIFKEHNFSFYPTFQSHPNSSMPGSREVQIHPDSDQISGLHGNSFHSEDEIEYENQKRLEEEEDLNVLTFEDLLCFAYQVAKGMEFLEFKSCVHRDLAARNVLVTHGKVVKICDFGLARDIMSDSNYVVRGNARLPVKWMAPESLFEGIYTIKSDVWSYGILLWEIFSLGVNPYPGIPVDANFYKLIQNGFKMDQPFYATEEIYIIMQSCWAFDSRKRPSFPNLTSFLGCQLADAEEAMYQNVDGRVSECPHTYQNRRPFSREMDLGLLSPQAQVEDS
Description: as §2

[15] = molecular target: ROS/ROS1 (Homo sapiens, UniProt P08922); test: Protein kinase profiling (Kinase HotSpot)
Description: as §1

[16] = molecular target: T13, IGF1R (Homo sapiens, UniProt P08069); test: Protein kinase profiling (Kinase HotSpot); type: biochemical; conditions: single dose 1 μM
T13 construct: purchased Reaction Biology Corp. (Kinase HotSpot service)
Description: as §2

[17] = molecular target: T14, TRKC (Homo sapiens, UniProt Q16288); test: Protein kinase profiling (Kinase HotSpot); type: biochemical
T14 construct: purchased Reaction Biology Corp. (Kinase HotSpot service)
T14 sequence (Q16288 32-839): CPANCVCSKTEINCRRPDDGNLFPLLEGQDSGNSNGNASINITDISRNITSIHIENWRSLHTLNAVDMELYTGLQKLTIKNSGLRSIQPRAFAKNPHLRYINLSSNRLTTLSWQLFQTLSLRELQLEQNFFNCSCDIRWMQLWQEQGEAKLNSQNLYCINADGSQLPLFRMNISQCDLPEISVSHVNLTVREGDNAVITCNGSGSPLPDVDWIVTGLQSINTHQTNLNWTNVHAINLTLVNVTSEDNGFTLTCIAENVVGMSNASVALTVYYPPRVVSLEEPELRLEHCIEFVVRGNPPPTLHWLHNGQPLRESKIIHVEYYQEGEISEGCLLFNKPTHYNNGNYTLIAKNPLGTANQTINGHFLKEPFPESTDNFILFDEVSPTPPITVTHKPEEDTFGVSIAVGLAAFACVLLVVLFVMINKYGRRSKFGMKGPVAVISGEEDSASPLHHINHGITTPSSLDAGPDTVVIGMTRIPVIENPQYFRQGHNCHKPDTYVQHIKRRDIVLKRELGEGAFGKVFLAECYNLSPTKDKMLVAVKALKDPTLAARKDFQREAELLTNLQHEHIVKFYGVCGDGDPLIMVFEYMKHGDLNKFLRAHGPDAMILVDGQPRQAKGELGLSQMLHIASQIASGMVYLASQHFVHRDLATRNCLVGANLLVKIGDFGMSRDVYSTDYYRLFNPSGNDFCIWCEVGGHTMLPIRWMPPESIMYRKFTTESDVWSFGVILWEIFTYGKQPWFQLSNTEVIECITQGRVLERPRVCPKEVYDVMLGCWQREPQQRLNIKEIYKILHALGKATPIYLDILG
Description: as §2

[18] = molecular target: JAK3 (Homo sapiens, UniProt P52333); test: Protein kinase profiling (Kinase HotSpot)
Description: as §1

[19] = molecular target: LYN (Homo sapiens, UniProt P07948); test: Protein kinase profiling (Kinase HotSpot)
Description: as §1

[20] = molecular target: T15, LCK (Homo sapiens, UniProt P06239); test: Protein kinase profiling (Kinase HotSpot); type: biochemical; conditions: single dose 1 μM
T15 construct: purchased Reaction Biology Corp. (Kinase HotSpot service)
Description: as §1

[21] = molecular target: PKA (Homo sapiens, UniProt P17612); test: Protein kinase profiling (Kinase HotSpot)
Description: as §1

[22] = molecular target: T16, c-MET (Homo sapiens, UniProt P08581); test: Protein kinase profiling (Kinase HotSpot); type: biochemical; conditions: single dose 1 μM
T16 construct: purchased Reaction Biology Corp. (Kinase HotSpot service)
Description: as §1

[23] = molecular target: FYN (Homo sapiens, UniProt P06241); test: Protein kinase profiling (Kinase HotSpot)
Description: as §2

[24] = molecular target: c-Kit (Homo sapiens, UniProt P10721); test: Protein kinase profiling (Kinase HotSpot)
Sequence of c-Kit (P10721 26-976): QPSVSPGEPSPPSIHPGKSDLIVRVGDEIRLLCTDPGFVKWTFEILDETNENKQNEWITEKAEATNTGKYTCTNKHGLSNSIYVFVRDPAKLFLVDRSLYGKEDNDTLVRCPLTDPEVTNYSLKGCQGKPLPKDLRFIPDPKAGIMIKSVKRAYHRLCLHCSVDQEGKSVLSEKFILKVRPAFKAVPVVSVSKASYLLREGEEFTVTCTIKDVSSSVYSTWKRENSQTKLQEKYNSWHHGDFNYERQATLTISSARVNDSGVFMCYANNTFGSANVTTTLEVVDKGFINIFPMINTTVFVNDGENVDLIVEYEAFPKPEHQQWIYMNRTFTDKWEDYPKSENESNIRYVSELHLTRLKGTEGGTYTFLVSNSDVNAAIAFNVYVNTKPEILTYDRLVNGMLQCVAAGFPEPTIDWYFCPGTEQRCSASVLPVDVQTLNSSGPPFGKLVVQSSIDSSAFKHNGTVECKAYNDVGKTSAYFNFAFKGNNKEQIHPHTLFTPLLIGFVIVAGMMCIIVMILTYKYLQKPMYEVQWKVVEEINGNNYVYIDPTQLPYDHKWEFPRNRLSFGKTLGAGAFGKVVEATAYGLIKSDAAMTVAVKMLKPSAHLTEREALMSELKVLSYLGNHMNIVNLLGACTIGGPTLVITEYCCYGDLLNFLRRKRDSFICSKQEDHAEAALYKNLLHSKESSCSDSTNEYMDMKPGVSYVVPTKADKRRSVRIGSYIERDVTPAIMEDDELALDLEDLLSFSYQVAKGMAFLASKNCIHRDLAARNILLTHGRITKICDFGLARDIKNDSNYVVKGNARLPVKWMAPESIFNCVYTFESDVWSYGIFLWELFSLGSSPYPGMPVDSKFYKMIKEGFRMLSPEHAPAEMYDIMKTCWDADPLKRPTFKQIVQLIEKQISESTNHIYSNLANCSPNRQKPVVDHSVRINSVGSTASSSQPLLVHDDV
Description: as §2

[25] = molecular target: T17, ERK1 (Homo sapiens, UniProt P27361); test: Protein kinase profiling (Kinase HotSpot); type: biochemical
T17 construct: purchased Reaction Biology Corp. (Kinase HotSpot service)
Description: as §1

[26] = molecular target: T18, KDR/VEGFR2 (Homo sapiens, UniProt P35968); test: Protein kinase profiling (Kinase HotSpot); type: biochemical; conditions: single dose 1 μM
T18 construct: purchased Reaction Biology Corp. (Kinase HotSpot service)
Description: as §1

[27] = molecular target: GSK3b (Homo sapiens, UniProt P49841); test: Protein kinase profiling (Kinase HotSpot)
Description: as §2

[28] = molecular target: T19, ABL1 (Homo sapiens, UniProt P00519); test: Protein kinase profiling (Kinase HotSpot); type: biochemical
T19 construct: purchased Reaction Biology Corp. (Kinase HotSpot service)
T19 sequence (P00519 whole entry): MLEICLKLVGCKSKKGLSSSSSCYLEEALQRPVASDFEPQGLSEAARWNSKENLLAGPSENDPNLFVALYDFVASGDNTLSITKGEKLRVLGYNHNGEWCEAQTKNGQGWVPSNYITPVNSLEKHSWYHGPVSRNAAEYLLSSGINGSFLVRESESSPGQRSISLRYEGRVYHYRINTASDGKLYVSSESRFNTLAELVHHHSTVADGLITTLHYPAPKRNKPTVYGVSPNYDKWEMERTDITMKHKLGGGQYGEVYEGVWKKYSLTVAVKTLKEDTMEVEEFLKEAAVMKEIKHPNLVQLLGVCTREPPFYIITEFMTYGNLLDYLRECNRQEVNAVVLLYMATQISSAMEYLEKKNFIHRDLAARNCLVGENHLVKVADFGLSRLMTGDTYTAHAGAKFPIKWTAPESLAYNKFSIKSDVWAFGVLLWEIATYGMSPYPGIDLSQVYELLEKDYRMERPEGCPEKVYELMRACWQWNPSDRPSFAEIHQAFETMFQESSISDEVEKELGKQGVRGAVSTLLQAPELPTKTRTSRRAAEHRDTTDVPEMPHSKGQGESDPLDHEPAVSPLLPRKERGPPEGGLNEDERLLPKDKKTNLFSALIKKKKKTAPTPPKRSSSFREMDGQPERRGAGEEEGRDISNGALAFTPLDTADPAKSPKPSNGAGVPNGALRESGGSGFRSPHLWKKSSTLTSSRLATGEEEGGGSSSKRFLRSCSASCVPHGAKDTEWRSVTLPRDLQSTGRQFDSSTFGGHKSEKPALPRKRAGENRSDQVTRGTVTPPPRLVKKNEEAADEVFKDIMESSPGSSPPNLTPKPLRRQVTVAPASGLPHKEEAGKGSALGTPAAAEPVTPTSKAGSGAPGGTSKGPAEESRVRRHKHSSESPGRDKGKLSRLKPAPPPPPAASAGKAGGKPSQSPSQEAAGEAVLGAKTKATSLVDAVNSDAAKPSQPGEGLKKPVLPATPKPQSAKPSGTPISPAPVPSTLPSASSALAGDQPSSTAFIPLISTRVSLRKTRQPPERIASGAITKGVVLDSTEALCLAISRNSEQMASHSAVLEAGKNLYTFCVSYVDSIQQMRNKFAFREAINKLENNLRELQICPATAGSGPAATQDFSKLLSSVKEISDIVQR
Description: as §2

[29] = molecular target: T20, RON/MST1R (Homo sapiens, UniProt Q04912); test: Protein kinase profiling (Kinase HotSpot); type: biochemical; conditions: single dose 1 μM
T20 construct: purchased Reaction Biology Corp. (Kinase HotSpot service)
Description: as §1

[30] = molecular target: T21, FLT3 (R595_E596 ins EY) (Homo sapiens, UniProt P36888, INS595EY); test: Kinase HotSpot radiometric kinase assay (Reaction Biology); type: biochemical
T21 construct: purchased Reaction Biology Corp. (Kinase HotSpot service)
T21 sequence (P36888 with tags, fused parts or gaps INS595EY limits assumed): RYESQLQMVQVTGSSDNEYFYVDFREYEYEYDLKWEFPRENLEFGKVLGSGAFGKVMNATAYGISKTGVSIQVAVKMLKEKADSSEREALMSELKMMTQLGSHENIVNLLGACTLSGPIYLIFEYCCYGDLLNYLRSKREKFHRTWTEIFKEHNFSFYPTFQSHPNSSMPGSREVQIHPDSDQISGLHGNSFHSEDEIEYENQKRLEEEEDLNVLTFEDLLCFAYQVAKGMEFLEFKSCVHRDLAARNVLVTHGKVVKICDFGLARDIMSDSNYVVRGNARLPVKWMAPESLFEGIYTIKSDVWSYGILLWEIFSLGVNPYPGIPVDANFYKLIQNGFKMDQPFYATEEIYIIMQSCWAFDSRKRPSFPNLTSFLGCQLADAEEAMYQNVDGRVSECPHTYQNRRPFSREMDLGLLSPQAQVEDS
Description: as §2

[31] = molecular target: T22, SYK (Homo sapiens, UniProt P43405); test: Protein kinase profiling (Kinase HotSpot); type: biochemical; conditions: single dose 1 μM
T22 construct: purchased Reaction Biology Corp. (Kinase HotSpot service)
Description: as §1

[32] = tested on: most other kinases; test: Protein kinase profiling, 42 different kinases (summary); type: biochemical; conditions: 1 μM; kinases of the 42-kinase panel other than FLT3
[33] = molecular target: FLT3-ITD (Homo sapiens, UniProt P36888); test: Protein kinase profiling (Kinase HotSpot); type: biochemical; conditions: single dose 1 μM
[34] = molecular target: Aurora A (Homo sapiens, UniProt O14965); test: Protein kinase profiling (Kinase HotSpot)
Description: as §2

[35] = molecular target: T23, AXL (Homo sapiens, UniProt P30530); test: Protein kinase profiling (Kinase HotSpot); type: biochemical; conditions: single dose 1 μM
T23 construct: purchased Reaction Biology Corp. (Kinase HotSpot service)
Description: as §2

[36] = molecular target: T24, BTK (Homo sapiens, UniProt Q06187); test: Protein kinase profiling (Kinase HotSpot); type: biochemical; conditions: single dose 1 μM
T24 construct: purchased Reaction Biology Corp. (Kinase HotSpot service)
Description: as §2

[37] = molecular target: T25, FMS (Homo sapiens, UniProt P07333); test: Protein kinase profiling (Kinase HotSpot); type: biochemical; conditions: single dose 1 μM
T25 construct: purchased Reaction Biology Corp. (Kinase HotSpot service)
Description: as §2

CCN1CCN(Cc2cc(C(=O)Nc3ccc4[nH]c(-c5ccc6cn[nH]c6c5)nc4c3)cc(C(F)(F)F)c2)CC1 [Compound 8r, N-(2-(1H-indazol-6-yl)-1H-benzo[di]imidazol-5-yl)-3-((4-ethylpiperazin-1-yl)methyl)-5-(trifluoromethyl)benzamide]
inhibition at 1 µM [1]: 5.69% | inhibition at 1 µM [2]: 7.5% | % Inhibition [3]: 88.0% | inhibition at 1 µM [4]: 9.76% | inhibition at 1 µM [5]: 3.09% | inhibition at 1 µM [6]: 1% | inhibition at 1 µM [7]: 7.3% | inhibition at 1 µM [8]: 0.274% | inhibition at 1 µM [9]: 6.64% | inhibition at 1 µM ([10]; CAMKK1, single dose 1 μM): 32.5% | IC50 ([10]; Table 4): 0.395 µM | inhibition at 1 µM [11]: 1.94% | inhibition at 1 µM [12]: 0% | inhibition at 1 µM [13]: 5.39% | melting point: 265 to 267 °C | inhibition at 1 µM ([14]; FLT3 (Y591_V592ins[…]), single dose 1 μM): 90.9% | IC50 ([14]; read-out: IC50 FLT3 (Y591_V592 ins VDFREYEYD)): 0.0495 µM | inhibition at 1 µM [15]: 7.4% | inhibition at 1 µM [16]: 6.14% | inhibition at 1 µM ([17]; TRKC, single dose 1 μM): 48.3% | IC50 ([17]; Table 4): 1.52 µM | inhibition at 1 µM [18]: 6.42% | inhibition at 1 µM [19]: 7.4% | inhibition at 1 µM [20]: 0% | inhibition at 1 µM [21]: 7.34% | inhibition at 1 µM [22]: 6.53% | inhibition at 1 µM [23]: 18% | inhibition at 1 µM [24]: 19% | IC50 ([24]; read-out: IC50 c-Kit, Table 4): 4.57 µM | inhibition at 1 µM [25]: 0% | inhibition at 1 µM [26]: 7.12% | inhibition at 1 µM [27]: 7.25% | inhibition at 1 µM ([28]; ABL1, single dose 1 μM): 18.4% | IC50 ([28]; Table 4): 3.09 µM | inhibition at 1 µM [29]: 6.99% | IC50 [30]: 0.0248 µM | inhibition at 1 µM ([30]; FLT3 (R595_E596insEY), single dose 1 μM): 93.9% | inhibition at 1 µM [31]: 6.01% | inhibitory activity for most other kinases [32]: less than 20% | % Inhibition [33]: 88.0% | inhibition at 1 µM [34]: 7.47% | inhibition at 1 µM [35]: 1.88% | inhibition at 1 µM [36]: 17.5% | inhibition at 1 µM [37]: 0.531%
